US20170246190A1, “METHODS AND FORMULATION FOR IMPROVING ORAL AVAILABILITY OF CPT-11 WHILE REDUCING CPT-11 INDUCED GASTROINTESTINAL TOXICITY IN CANCER THERAPY” (Johnpro Biotech Inc., priority 2014, published 2017)
Where a name gives a salt, the structure may show the parent alone.

What was measured:
NOD/SCID mice [1] = assay: Bloody diarrhea evaluation by daily naked-eye observation; assay type: in vivo; conditions: oral CPT-11 50 mg/Kg and/or silychristin 10 mg/Kg
Method: (§1) To inoculate tumor, HT29 cells (1×10^6 cells per injection) were injected subcutaneously to lab animals to generate s.c. tumors on day 1, which were allowed to grow to about 5 mm in diameter. Two sets of experiments were conducted.
(§2) In the first set of experiment, effects of silymarin on the reduction of CPT-11 induced bloody stool were investigated. […] At the end of the experiments, the animals were sacrificed and colon tissues from each animals were stained and used in histological analysis.

E. Coli βG (eβG) = E. Coli βG (eβG) (Escherichia coli, UniProt P05804); assay: Beta-glucuronidase activity with fluorogenic substrate MUG, E. Coli enzyme; assay type: biochemical; conditions: FIG. 3A
Sequence of E. Coli βG (eβG) (P05804 whole entry): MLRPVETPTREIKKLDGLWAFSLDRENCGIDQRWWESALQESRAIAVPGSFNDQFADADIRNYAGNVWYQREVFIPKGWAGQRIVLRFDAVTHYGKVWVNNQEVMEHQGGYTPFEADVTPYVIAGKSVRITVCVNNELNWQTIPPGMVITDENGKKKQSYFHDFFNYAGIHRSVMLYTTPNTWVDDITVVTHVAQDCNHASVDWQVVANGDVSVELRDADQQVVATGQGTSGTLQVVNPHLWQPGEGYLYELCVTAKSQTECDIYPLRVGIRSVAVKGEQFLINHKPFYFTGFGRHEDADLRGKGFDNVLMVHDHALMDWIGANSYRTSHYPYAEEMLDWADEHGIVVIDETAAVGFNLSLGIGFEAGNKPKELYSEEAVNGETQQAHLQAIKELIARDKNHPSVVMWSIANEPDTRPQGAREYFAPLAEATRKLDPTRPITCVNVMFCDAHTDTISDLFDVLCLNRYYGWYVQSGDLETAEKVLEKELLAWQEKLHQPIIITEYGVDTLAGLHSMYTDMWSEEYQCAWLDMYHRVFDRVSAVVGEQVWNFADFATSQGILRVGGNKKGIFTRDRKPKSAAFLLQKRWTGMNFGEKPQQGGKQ
Method: (§3) The βG activity in solution was determined with the fluorogenic substrate 4-methylumbellifery β-D-glucuronide (MUG), in which the non-fluorescent MUG would give rise to glucuronic acid and a highly fluorescent product, 4-methylumbelliferone (4-MU), at higher pH, after being converted by βG. The reaction can be quenched by the addition of a basic solution of sodium carbonate, and pH may be adjusted to quantitate the fluorescent signals. […] After 10 minutes, the assays were quenched at 15 second intervals by adding 1.9 ml of the carbonate stopping buffer. The samples were subject to fluorescence measurement, and the data was converted to nmol MUG hydrolyzed as an indication of GUS enzyme activity.
(§4) Silymarin is known to be a mixture of flavonolignans extracted from blessed milk thistle (Silybum marianum). […] Results are illustrated in FIGS. 3A and 3B.

human βG (hβG) = biological target: T1, human βG (hβG) (Homo sapiens, UniProt P08236); assay: Beta-glucuronidase activity with fluorogenic substrate MUG, human enzyme; assay type: biochemical; conditions: 8 μM; FIG. 3B
T1 sequence (P08236 23-651): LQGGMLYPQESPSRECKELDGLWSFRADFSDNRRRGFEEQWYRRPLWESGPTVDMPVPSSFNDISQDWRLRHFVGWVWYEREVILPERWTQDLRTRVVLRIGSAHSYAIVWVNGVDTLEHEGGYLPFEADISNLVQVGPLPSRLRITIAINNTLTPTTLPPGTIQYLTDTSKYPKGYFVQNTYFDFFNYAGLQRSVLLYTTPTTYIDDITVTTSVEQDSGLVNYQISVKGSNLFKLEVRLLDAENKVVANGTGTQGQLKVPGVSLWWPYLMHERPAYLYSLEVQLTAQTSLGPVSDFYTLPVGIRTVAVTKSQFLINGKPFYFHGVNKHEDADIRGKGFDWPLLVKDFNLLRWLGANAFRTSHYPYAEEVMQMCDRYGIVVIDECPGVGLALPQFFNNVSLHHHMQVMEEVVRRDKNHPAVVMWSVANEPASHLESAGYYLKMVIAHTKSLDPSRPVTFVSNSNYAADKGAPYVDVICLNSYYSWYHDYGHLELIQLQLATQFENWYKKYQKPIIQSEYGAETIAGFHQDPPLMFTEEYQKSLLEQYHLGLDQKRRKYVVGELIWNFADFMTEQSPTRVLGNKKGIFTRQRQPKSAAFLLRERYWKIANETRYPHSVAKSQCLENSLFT
Method: as §3, §4

normal cells HEK-293 = assay: Cell viability assay (MTS) on normal cells; assay type: cell-based, human; conditions: 100 μM; FIG. 4
Method: Cell line used in the present disclosure were human colon carcinoma cell line HT29, and human embryonic kidney cell line HEK-293. HT29 cells were cultured and maintained in Dulbecco's modified Eagle media (DMEM) supplemented with 10% heat inactivated fetal bovine serum (FBS), 50 units/mL penicillin G, 50 μg/mL streptomycin (pH 7.4), while HEK-293 cells were cultured in complete SFMII growth medium supplemented with 4mM L-glutamine. Both cell lines were maintained in humidified environment comprising 5% CO2/95% air at 37° C.
Cell were cultured at a density of 1.0×10^5 cells/well in 96-well round-bottom plates (Falcon, UK) containing 200 μL of culturing medium. Cells were maintained for two days at 37° C. in a humidified, 5% CO2 atmosphere. The proliferation rate of the cells was determined by MTS assay (CellTiter 96 aqueous one-solution cell proliferation assay; Promega, Wis., USA). Forty microliters of CellTiter 96 aqueous one-solution were added to each well. After incubation for 4hrs, the UV absorbance of the solution was measured at a wavelength of 490 nm. All MTS assays were performed in triplicate.

[2] = Oral availability of CPT-11: blood levels of CPT-11 and SN-38 by HPLC in mice bearing HT29 xenograft tumors; assay type: in vivo, NOD/SCID mice; conditions: oral CPT-11 40 mg/Kg alone, 4 hrs after ingestion, FIG. 1A
Method: as §1
In the second set of experiment, oral availability of CPT-11 was evaluated. The animals were randomly assigned to 3 groups, in which animals in group 1 (N=5) were on normal diet; animals in group 2 (N=5) received oral CPT-11 treatment (40 mg/Kg), and animals in group 3 (N=5) received a dose of dose of UDCA (20 mg/Kg) on day 1, an hour later, one dose of CPT-11 (40 mg/Kg) and one dose of silymarin (100 mg/Kg) were given. Blood samples were respectively taken at 1, 4, 8 hrs after the combined treatment of CPT-11 and on days 4, and 8; and the level of SN-38 (i.e., an active metabolite of CPT-11) was measured by HPLC. The body weight (BW) of each animal was measured daily.
The animals bearing xenografted s.c. colon tumors were randomly assigned into 3 groups, in which group 1 received no treatment, group 2 received one dose of oral treatment of CPT-11 (40 mg/Kg), and group 3 received UDCA (20 mg/Kg), CPT-11 (40 mg/Kg) and silymarin (100 mg/Kg) via oral ingestion in accordance with procedures described in the “Materials and methods” section. […]

NOD/SCID mice [3] = assay: Histological analysis (H&E) of colon tissues after oral CPT-11 treatment; assay type: in vivo; conditions: oral CPT-11 50 mg/Kg, with or without silychristin 10 mg/Kg; FIG. 2
Method: as §1, §2

| blood level of CPT-11 [2] | SMILES | number of animals that exhibited bloody stool / bloody diarrhea (NOD/SCID mice [1]) | inhibition of eβG activity (E. Coli βG (eβG); 8 μM) | eβG activity (E. Coli βG (eβG); 40 μM) | effect on the activity of hβG (human βG (hβG)) | effect on normal cells' activities (viability of HEK-293) (normal cells HEK-293) | colon tissue damage (morphology and integrity of epithelial cells), H&E histology (NOD/SCID mice [3]) |
| --- | --- | --- | --- | --- | --- | --- | --- |
| – | COc1cc([C@@H]2Oc3c(O)cc([C@H]4Oc5cc(O)cc(O)c5C(=O)[C@@H]4O)cc3[C@H]2CO)ccc1O [silychristin] | none | ~80% | negligible level | without affecting | did not adversely affect | – |
| undetectable level | CCc1c2c(nc3ccc(OC(=O)N4CCC(N5CCCCC5)CC4)cc13)-c1cc3c(c(=O)n1C2)COC(=O)[C@]3(O)CC [CPT-11, Irinotecan hydrochloride] | 4 animals | – | – | – | – | severe damage |
